According to US7192974B2, “Hydroxymethyl substituted dihydroisoxazole derivatives useful as antibiotic agents” (AstraZeneca AB, priority 2003, dated 2007):
≈ marks a conversion by molar mass, not a printed value. Like-named read-outs stand apart in the source and are kept apart here.

Legend:
[1] = system: Staphylococcus aureus MRQR; experiment: MIC by agar-dilution, Staphylococci on agar; assay type: cell-based; conditions: MRQR = methicillin resistant and quinolone resistant, inoculum 10^4 CFU/spot, 37° C., 24 hours
Method: (§1) The following results were obtained on a standard in-vitro test system. The activity is described in terms of the minimum inhibitory concentration (MIC) determined by the agar-dilution technique with an inoculum size of 10^4 CFU/spot. Typically, compounds are active in the range 0.01 to 256 μg/ml.
(§2) Staphylococci were tested on agar, using an inoculum of 10^4 CFU/spot and an incubation temperature of 37° C. for 24 hours—standard test conditions for the expression of methicillin resistance.

[2] = system: Staphylococcus aureus MSQS; experiment: MIC by agar-dilution, Staphylococci on agar; assay type: cell-based; conditions: MSQS = methicillin sensitive and quinolone sensitive, inoculum 10^4 CFU/spot, 37° C., 24 hours
Method: as §1, §2

Haemophilus influenzae = experiment: MIC, fastidious Gram negative organisms in Mueller-Hinton broth; assay type: cell-based; conditions: Mueller-Hinton broth with hemin and NAD, 24 hours, 5×10^4 CFU/well
Method: (§3) The following results were obtained on a standard in-vitro test system. The activity is described in terms of the minimum inhibitory concentration (MIC) determined by the agar-dilution technique with an inoculum size of 10^4 CFU/spot. Typically, compounds are active in the range 0.01 to 256 μg/ml. Streptococci and enterococci were tested on agar supplemented with 5% defibrinated horse blood, an inoculum of 10^4 CPU/spot and an incubation temperature of 37° C. in an atmosphere of 5% carbon dioxide for 48 hours—blood is required for the growth of some of the test organisms. Fastidious Gram negative organisms were tested in Mueller-Hinton broth, supplemented with hemin and NAD, grown aerobically for 24 hours at 37° C., and with an innoculum of 5×10^4 CFU/well.

Moraxella catarrhalis = experiment: as above; assay type: cell-based; conditions: Mueller-Hinton broth with hemin and NAD, 24 hours, 5×10^4 CFU/well
Method: as §3

Streptococcus pneumoniae = experiment: MIC, Streptococci on agar with 5% defibrinated horse blood; assay type: cell-based; conditions: 5% carbon dioxide, 48 hours
Method: as §3

MAO-A = target: T1, MAO-A (Homo sapiens, UniProt P21397); experiment: MAO-A in-vitro assay, human liver enzyme expressed in yeast; assay type: biochemical
T1 construct: made in house; host or cells: yeast
T1 sequence (P21397 1-527): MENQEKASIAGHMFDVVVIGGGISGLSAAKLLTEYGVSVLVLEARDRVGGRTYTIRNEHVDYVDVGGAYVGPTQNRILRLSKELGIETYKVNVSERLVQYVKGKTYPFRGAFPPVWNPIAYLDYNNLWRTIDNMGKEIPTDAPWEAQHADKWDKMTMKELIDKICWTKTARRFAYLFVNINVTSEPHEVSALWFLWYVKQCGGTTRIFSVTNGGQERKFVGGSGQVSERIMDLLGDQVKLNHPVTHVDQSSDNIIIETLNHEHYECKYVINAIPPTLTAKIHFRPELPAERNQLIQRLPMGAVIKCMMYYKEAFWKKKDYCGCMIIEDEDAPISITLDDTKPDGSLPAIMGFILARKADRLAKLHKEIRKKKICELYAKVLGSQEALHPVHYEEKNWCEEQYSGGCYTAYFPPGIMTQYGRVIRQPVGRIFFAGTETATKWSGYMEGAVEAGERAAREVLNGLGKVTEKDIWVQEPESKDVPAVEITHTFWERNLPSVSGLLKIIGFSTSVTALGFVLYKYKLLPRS
Method: The activity of the compounds of the invention against MAO-A was tested using a standard in-vitro assay based on human liver enzyme expressed in yeast as described in Biochem. Biophys. Res. Commun. 1991, 181, 1084–1088.

O=C1O[C@@H](Cn2ccnn2)CN1c1ccc(-c2ccc(C3=NO[C@H](CO)C3)nc2)c(F)c1 [Example 1, (5R)-3-(3-Fluoro-4-{6-[(5S)-5-(hydroxymethyl)-4,5-dihydroisoxazol-3-yl]pyridin-3-yl}phenyl)-5-(1H-1,2,3-triazol-1-ylmethyl)-1,3-oxazolidin-2-one]
MIC [1]: 0.5 µg/mL (≈ 1.14 µM) | MIC [2]: 0.25 µg/mL (≈ 0.57 µM) | MIC (Haemophilus influenzae): 4 µg/mL (≈ 9.12 µM) | MIC (Moraxella catarrhalis): 0.5 µg/mL (≈ 1.14 µM) | MIC (Streptococcus pneumoniae): 0.02 µg/mL (≈ 0.0456 µM) | Ki (MAO-A; human liver enzyme expressed in yeast, read-out: Ki value (MAO-A)): 20 µM

O=C1O[C@@H](Cn2ccnn2)CN1c1ccc(-c2ccc(C3=NO[C@@H](CO)C3)nc2)c(F)c1 [Example 2, (5R)-3-(3-Fluoro-4-{6-[(5R)-5-(hydroxymethyl)-4,5-dihydroisoxazol-3-yl]pyridin-3-yl}phenyl)-5-(1H-1,2,3-triazol-1-ylmethyl)-1,3-oxazolidin-2-one]
Ki (MAO-A; read-out: MAO-A Ki): 0.7 µM

CC(=O)NC[C@H]1CN(c2ccc(-c3ccc(C4=NO[C@H](CO)C4)nc3)c(F)c2)C(=O)O1 [Example 3, N-{[(5S)-3-(3-Fluoro-4-{6-[(5S)-5-(hydroxymethyl)-4,5-dihydroisoxazol-3-yl]pyridin-3-yl}phenyl)-2-oxo-1,3-oxazolidin-5-yl]methyl}acetamide]
Ki (MAO-A; read-out: MAO-A Ki): 9 µM

CC(=O)NC[C@H]1CN(c2ccc(-c3ccc(C4=NO[C@@H](CO)C4)nc3)c(F)c2)C(=O)O1 [Example 4, N-{[(5S)-3-(3-Fluoro-4-{6-[(5R)-5-(hydroxymethyl)-4,5-dihydroisoxazol-3-yl]pyridin-3-yl}phenyl)-2-oxo-1,3-oxazolidin-5-yl]methyl}acetamide]
Ki (MAO-A; read-out: MAO-A Ki): 3 µM

O=C(OC[C@@H]1CC(c2ccc(-c3ccc(N4C[C@H](Cn5ccnn5)OC4=O)cc3F)cn2)=NO1)c1cnccn1 [Example 30, [(5S)-3-(5-{2-fluoro-4-[(5R)-2-oxo-5-(1H-1,2,3-triazol-1-ylmethyl)-1,3-oxazolidin-3-yl]phenyl}pyridin-2-yl)-4,5-dihydroisoxazol-5-yl]methylpyrazine-2-carboxylate]
melting point: 205 to 226 °C

O=C(OC[C@@H]1CC(c2ccc(-c3ccc(N4C[C@H](Cn5ccnn5)OC4=O)cc3F)cn2)=NO1)c1cncnc1 [Example 31]
melting point: 253 to 264 °C

COC(=O)N(C)CCCCC(=O)OC[C@@H]1CC(c2ccc(-c3ccc(N4C[C@H](Cn5ccnn5)OC4=O)cc3F)cn2)=NO1 [Example 33, [(5S)-3-(5-{2-fluoro-4-[(5R)-2-oxo-5-(1H-1,2,3-triazol-1-ylmethyl)-1,3-oxazolidin-3-yl]phenyl}pyridin-2-yl)-4,5-dihydroisoxazol-5-yl]methyl 5-[(methoxycarbonyl)(methyl)amino]pentanoate]
melting point: 82 °C

CN(CCCCC(=O)OC[C@@H]1CC(c2ccc(-c3ccc(N4C[C@H](Cn5ccnn5)OC4=O)cc3F)cn2)=NO1)C(=O)OC(C)(C)C [Example 34, [(5S)-3-(5-{2-fluoro-4-[(5R)-2-oxo-5-(1H-1,2,3-triazol-1-ylmethyl)-1,3-oxazolidin-3-yl]phenyl}pyridin-2-yl)-4,5-dihydroisoxazol-5-yl]methyl 5-[(tert-butoxycarbonyl)(methyl)amino]pentanoate]
melting point: 121 °C

COC(=O)N(C)CCCC(=O)OC[C@@H]1CC(c2ccc(-c3ccc(N4C[C@H](Cn5ccnn5)OC4=O)cc3F)cn2)=NO1 [Example 35, [(5S)-3-(5-{2-fluoro-4-[(5R)-2-oxo-5-(1H-1,2,3-triazol-1-ylmethyl)-1,3-oxazolidin-3-yl]phenyl}pyridin-2-yl)-4,5-dihydroisoxazol-5-yl]methyl 4-[(methoxycarbonyl)(methyl)amino]butanoate]
melting point: 135 °C

COC(=O)N(C)CCCCCC(=O)OC[C@@H]1CC(c2ccc(-c3ccc(N4C[C@H](Cn5ccnn5)OC4=O)cc3F)cn2)=NO1 [Example 36, [(5S)-3-(5-{2-fluoro-4-[(5R)-2-oxo-5-(1H-1,2,3-triazol-1-ylmethyl)-1,3-oxazolidin-3-yl]phenyl}pyridin-2-yl)-4,5-dihydroisoxazol-5-yl]methyl 6-[(methoxycarbonyl)(methyl)amino]hexanoate]
melting point: 103 °C
